Measured values: ChEMBL document CHEMBL5154808, “Novel β-Hairpin Antimicrobial Peptides Containing the β-Turn Sequence of -RRRF- Having High Cell Selectivity and Low Incidence of Drug Resistance” (J Med Chem, 2022)
Values after ≈ are worked out from the molar mass of the structure shown. Active and inactive are the calls of the source. No cut-off for these calls is given here. Where a SMILES comes first, the peptide text is derived from it.

Assays:
Enterococcus faecalis = experiment: Antimicrobial activity against Enterococcus faecalis ATCC 29212 assessed as reduction of bacterial growth incubated for 18 hrs by CLSI protocol based broth microdilution method; assay type: functional
[1] = Cytotoxicity against human HK-2 cells assessed as reduction in cell viability incubated for 1 hr by resazurin based microplate reader method; assay type: toxicity
Staphylococcus aureus [2] = experiment: Antimicrobial activity against Staphylococcus aureus ATCC 25923 assessed as reduction of bacterial growth incubated for 18 hrs by CLSI protocol based broth microdilution method; assay type: functional
Klebsiella pneumoniae = experiment: Antimicrobial activity against Klebsiella pneumoniae ATCC 700603 assessed as reduction of bacterial growth incubated for 18 hrs by CLSI protocol based broth microdilution method; assay type: functional
Erythrocyte = experiment: Hemolytic activity in mouse red blood cells assessed as release of hemoglobin incubated for 1 hr by microplate reader method; assay type: toxicity, cell-based
Bacillus subtilis = experiment: Antimicrobial activity against Bacillus subtilis ATCC 23857 assessed as reduction of bacterial growth incubated for 18 hrs by CLSI protocol based broth microdilution method; assay type: functional
Escherichia coli [3] = experiment: Antimicrobial activity against Escherichia coli ATCC 25922 assessed as reduction of bacterial growth incubated for 18 hrs by CLSI protocol based broth microdilution method; assay type: functional
[4] = test system: Staphylococcus epidermidis; experiment: Antimicrobial activity against Staphylococcus epidermidis ATCC 12228 assessed as reduction of bacterial growth incubated for 18 hrs by CLSI protocol based broth microdilution method; assay type: functional
Pseudomonas aeruginosa = experiment: Antimicrobial activity against Pseudomonas aeruginosa ATCC 27853 assessed as reduction of bacterial growth incubated for 18 hrs by CLSI protocol based broth microdilution method; assay type: functional
Escherichia coli [5] = experiment: Antimicrobial activity against kanamycin-resistant Escherichia coli ATCC 25922; assay type: functional
Staphylococcus aureus [6] = experiment: Induction of drug resistance in Staphylococcus aureus ATCC 25923 assessed as fold increase in MIC after 5 passages by CLSI protocol based broth microdilution method; assay type: functional; settings: time 18.0 hrs
Escherichia coli [7] = experiment: Induction of drug resistance in Escherichia coli ATCC 25922 assessed as increase in MIC measured after 20 passages by CLSI protocol based broth microdilution method; assay type: functional; settings: time 18.0 hrs
Staphylococcus aureus [8] = experiment: Antimicrobial activity against kanamycin-resistant Staphylococcus aureus ATCC 25923; assay type: functional
Staphylococcus aureus [9] = experiment: Induction of drug resistance in Staphylococcus aureus ATCC 25923 assessed as increase in MIC after 10 passages by CLSI protocol based broth microdilution method; assay type: functional

Row | Molecule | MIC (Enterococcus faecalis) [µM] | MIC (Staphylococcus aureus [2]) [µM] | MIC (Klebsiella pneumoniae) [µM] | MIC (Bacillus subtilis) [µM] | MIC (Escherichia coli [3]) [µM] | MIC [4] [µM] | MIC (Pseudomonas aeruginosa) [µM] | CC50 at 1 h [1] [µM] | HC10 (Erythrocyte) [µM] | MIC (Escherichia coli [5]) [µM] | fold change (FC) (Staphylococcus aureus [6]) | Activity (Escherichia coli [7]) | MIC (Staphylococcus aureus [8]) [µM] | Activity (Staphylococcus aureus [9])
1 | NC[C@H]1O[C@H](O[C@H]2[C@H](O)[C@@H](O[C@H]3O[C@H](CO)[C@@H](O)[C@H](N)[C@H]3O)[C@H](N)C[C@@H]2N)[C@H](O)[C@@H](O)[C@@H]1O [KANAMYCIN] | 16 (≈ 7.75 µg/mL) | < 1 | 64 (≈ 31 µg/mL) | < 1 | 4 (≈ 1.94 µg/mL) | > 128 | > 128 |  |  | 1020 (≈ 496 µg/mL) | 64 | Active | 1020 (≈ 496 µg/mL) | 
2 | CC[C@H](C)[C@H](NC(=O)CN)C(=O)NCC(=O)N[C@@H](C)C(=O)N[C@H](C(=O)N[C@@H](CC(C)C)C(=O)N[C@@H](CCCCN)C(=O)N[C@H](C(=O)N[C@@H](CC(C)C)C(=O)N[C@H](C(=O)N[C@H](C(=O)NCC(=O)N[C@@H](CC(C)C)C(=O)N1CCC[C@H]1C(=O)N[C@@H](C)C(=O)N[C@@H](CC(C)C)C(=O)N[C@H](C(=O)N[C@@H](CO)C(=O)N[C@@H](Cc1c[nH]c2ccccc12)C(=O)N[C@H](C(=O)N[C@@H](CCCCN)C(=O)N[C@@H](CCCNC(=N)N)C(=O)N[C@@H](CCCCN)C(=O)N[C@@H](CCCNC(=N)N)C(=O)N[C@@H](CCC(N)=O)C(=O)N[C@@H](CCC(N)=O)C(N)=O)[C@@H](C)CC)[C@@H](C)CC)[C@@H](C)O)[C@@H](C)O)C(C)C)C(C)C [MELITTIN] | 2 (≈ 5.69 µg/mL) |  | 16 (≈ 45.5 µg/mL) |  |  |  |  |  |  |  |  |  |  | 
3 | C[C@@H](O)[C@H]1C(=O)N2C(C(=O)O)=C(S[C@@H]3CN[C@H](C(=O)N(C)C)C3)[C@H](C)[C@H]12 [MEROPENEM] | 16 (≈ 6.14 µg/mL) | < 1 | < 1 | < 1 | < 1 | < 1 | 2 (≈ 0.767 µg/mL) |  |  |  |  | Active |  | Active
4 | CO[C@H]1/C=C/O[C@@]2(C)Oc3c(C)c(O)c4c(O)c(c(/C=N/N5CCN(C)CC5)c(O)c4c3C2=O)NC(=O)/C(C)=C\C=C\[C@H](C)[C@H](O)[C@@H](C)[C@@H](O)[C@@H](C)[C@H](OC(C)=O)[C@@H]1C [RIFAMPIN] | < 1 | < 1 | 32 (≈ 26.3 µg/mL) | < 1 | 4 (≈ 3.29 µg/mL) | < 1 | 32 (≈ 26.3 µg/mL) |  |  |  | 64 | Active |  | 
5 | H-ARARRRRFRARA-NH2 | > 128 | 128 | > 128 | 64 | > 128 | 128 | > 128 | > 128 | > 256 |  |  |  |  | 
6 | H-IKIKRRRFKIKI-NH2 | 64 | 32 | 64 | 4 | 64 | 8 | 16 | > 128 | > 256 |  |  |  |  | 
7 | H-IRIRRRRFRIRI-NH2 | 16 | 4 | 16 | 4 | 16 | 4 | 4 | 128 | > 256 |  |  |  |  | 
8 | H-LKLKRRRFKLKL-NH2 | 128 | 32 | 128 | 4 | 32 | 8 | 64 | > 128 | > 256 |  |  |  |  | 
9 | H-RIRIRRRFIRIR-NH2 | 32 | 8 | 64 | 4 | 8 | 4 | 16 | > 128 | > 256 |  |  |  |  | 
10 | H-VRVRRRRFRVRV-NH2 | > 128 | 16 | 64 | 4 | 32 | 8 | 64 | > 128 | > 256 |  |  |  |  | 
11 | H-WKWKRRRFKWKW-NH2 | 16 | 4 | 8 | 2 | 4 | 4 | 4 | 120 | > 256 |  |  |  |  | 

Further molecules by falling MIC (Enterococcus faecalis), results first:

Row | MIC (Enterococcus faecalis) [µM] | MIC (Staphylococcus aureus [2]) [µM] | MIC (Klebsiella pneumoniae) [µM] | MIC (Bacillus subtilis) [µM] | MIC (Escherichia coli [3]) [µM] | MIC [4] [µM] | MIC (Pseudomonas aeruginosa) [µM] | Molecule | CC50 at 1 h [1] [µM] | HC10 (Erythrocyte) [µM] | MIC (Escherichia coli [5]) [µM] | fold change (FC) (Staphylococcus aureus [6]) | Activity (Escherichia coli [7]) | MIC (Staphylococcus aureus [8]) [µM] | Activity (Staphylococcus aureus [9])
12 | 16 (≈ 30.7 µg/mL) | 8 (≈ 15.3 µg/mL) | 8 (≈ 15.3 µg/mL) | 4 (≈ 7.67 µg/mL) | 8 (≈ 15.3 µg/mL) | 4 (≈ 7.67 µg/mL) | 4 (≈ 7.67 µg/mL) | CC[C@H](C)[C@H](N)C(=O)N[C@@H](CCCNC(=N)N)C(=O)N[C@H](C(=O)N[C@@H](CCCNC(=N)N)C(=O)N[C@@H](CS)C(=O)N[C@@H](CCCNC(=N)N)C(=O)N[C@@H](CCCNC(=N)N)C(=O)N[C@@H](CCCNC(=N)N)C(=O)N[C@@H](Cc1ccccc1)C(=O)N[C@@H](CS)C(=O)N[C@@H](CCCNC(=N)N)C(=O)N[C@H](C(=O)N[C@@H](CCCNC(=N)N)C(=O)N[C@H](C(N)=O)[C@@H](C)CC)[C@@H](C)CC)[C@@H](C)CC (H-IRIRCRRRFCRIRI-NH2) | 37.1 | > 256 |  |  |  |  | 
13 | 16 | 4 | 8 | 2 | 8 | 4 | 8 | H-FRFRRRRFRFRF-NH2 | 42 | 237 |  |  |  |  | 
14 | 8 (≈ 17.3 µg/mL) | 8 (≈ 17.3 µg/mL) | 8 (≈ 17.3 µg/mL) | 2 (≈ 4.32 µg/mL) | 8 (≈ 17.3 µg/mL) | 4 (≈ 8.64 µg/mL) | 4 (≈ 8.64 µg/mL) | CC(C)C[C@H](NC(=O)[C@H](CCCNC(=N)N)NC(=O)CNC(=O)CNC(=O)[C@@H](N)CCCNC(=N)N)C(=O)N[C@@H](CS)C(=O)N[C@@H](Cc1ccc(O)cc1)C(=O)N[C@@H](CS)C(=O)N[C@@H](CCCNC(=N)N)C(=O)N[C@@H](CCCNC(=N)N)C(=O)N[C@@H](CCCNC(=N)N)C(=O)N[C@@H](Cc1ccccc1)C(=O)N[C@@H](CS)C(=O)N[C@H](C(=O)N[C@@H](CS)C(=O)N[C@H](C(=O)NCC(=O)N[C@@H](CCCNC(=N)N)C(N)=O)C(C)C)C(C)C (H-RGGRLCYCRRRFCVCVGR-NH2) | 14.2 | 20 |  |  |  |  | 
15 | 8 | 8 | 8 | 4 | 8 | 2 | 8 | H-FRFRFRRRRFRFRFRF-NH2 | 10.3 | > 256 |  |  |  |  | 
16 | 8 | 8 | 8 | 4 | 8 | 4 | 4 | H-WKWKWKRRRFKWKWKW-NH2 | 10.4 | > 256 |  |  |  |  | 
17 | 8 | 8 | 8 | 2 | 8 | 4 | 8 | H-WRWRRRRFRWRW-NH2 | 8.7 | > 256 |  |  |  |  | 
18 | 4 | 8 | 8 | 2 | 8 | 2 | 4 | H-IRIRIRRRRFRIRIRI-NH2 | 12.3 | 56 |  |  |  |  | 
